Broadly, the EC50 is the concentration needed to bring the measured effect to its halfway point. Usually bioavailability stands for the share of a dose that reaches the circulation, judged against a reference dose that is usually intravenous. A low value points to little systemic uptake.

Like-named read-outs stand apart in the source and are kept apart here.

Data set [1] is described as follows: Blood-brain barrier crossing, homogenized brains of mice dosed IP. Format: in vivo. As to conditions: C57/BL mice dosed IP at 25 mg/kg, FIG. 5.
Another data set deals with SURF-1 fibroblasts. In words: Surfeit-1 (SURF1) cell line assay: rescue of BSO-stressed patient fibroblasts, Calcein AM viability. Format: cell-based. The following applies: Homo sapiens, Fibroblast, BSO-stressed fibroblasts of the Example 2 patient. The method, then: Alpha-Tocotrienol quinone, its redox-silent version (the bis-Boc protected corresponding hydroquinone), and solvent controls were tested for their ability to rescue cells from SURF-1 fibroblasts of the patient diagnosed with SURF-1 described in Example 2, when the cells were stressed by addition of L-buthionine-(S,R)-sulfoximine (BSO), as described in Jauslin et al., Hum. Mol. Genet. 11(24):3055 (2002), Jauslin et al., FASEB J. 17:1972-4 (2003), and International Patent Application WO 2004/003565. EC50 concentrations of test compound and its redox-silent version were determined and compared. The following compound, 2-((6E,10E)-3-hydroxy-3,7,11,15-tetramethylhexadeca-6,10,14-trienyl)-3,5,6-trimethyl-bis(t-butyloxycarbonyl)benzene-1,4-diol, the bis-Boc protected hydroquinone form of alpha-tocotrienol quinone, was used as the “redox-silent” alpha tocotrienol quinone, or αTTQ-RS.
MEM (a medium enriched in amino acids and vitamins, catalog no. 1-31F24-I) and Medium 199 (M199, catalog no. 1-21F22-I) with Earle's Balanced Salts, without phenol red, were purchased from Bioconcept. Fetal Calf Serum was obtained from PAA Laboratories. Basic fibroblast growth factor and epidermal growth factor were purchased from PeproTech. Penicillin-streptomycin-glutamine mix, L-buthionine (S,R)-sulfoximine, and insulin from bovine pancreas were purchased from Sigma. […]

Data set [2] can be described thus: Animal study of alpha-tocotrienol quinone administration, pharmacokinetics in fasted dogs. As to conditions: dog, in vivo, po, 10 mg/kg. The method, then:
(§1) The particular dosage appropriate for a specific patient is determined by dose titration. […] There is less than dose-proportionality since for an increase in doses of 2.4:6:10:20 there is only an increase in AUCs of 1.5:2.8:4.0:6.7. This lack of dose-proportionality may be due to decreased absorption since there is no change in t1/2 over dose range. Alpha-tocotrienol quinone tested in rats was safe when given acutely up to 2000 mg/kg.

For data set [3] the following is noted: rat, in vivo. The method, then:
as §1
The starting dose can be estimated based on the United States Food and Drug Administration guidelines titled “Estimating the Maximum Safe Starting Dose in Initial Clinical Trials for Therapeutics in Adult Healthy Volunteers” (July 2005) as well as the International Conference on Harmonisation of Technical Requirements for Registration of Pharmaceuticals for Human Use (ICH) guidelines titled “Guidance on Non-clinical Safety Studies for the Conduct of Human Clinical Trials and Marketing Authorization for Pharmaceuticals” (July 2008). Per ICH guidelines, predicted exposures from the starting dose should not exceed 1/50th the NOAEL (No-Adverse-Observed-Effect-Level) in the more sensitive species on a mg/m^2 basis. Following a single oral dose of alpha-tocotrienol quinone, the NOAEL was established to be 500 mg/kg for the female rat, i.e. 3,000 mg/m2. This dosage would be equivalent to 81 mg/kg in an adult human. […]

The subject of data set [4] is patient with Leigh Syndrome. In words: Treatment of a Leigh Syndrome patient (Example 3), observed function. Format: in vivo, human. As to conditions: Example 3 patient. The method, then:
A patient with Leigh Syndrome was treated with alpha-tocotrienol quinone. Informed consent was obtained from the child's parents in accordance with federal regulations and institutional protocol. A mutation was identified in the SURF-1 gene of the patient.
At the start of treatment, the patient was unable to control their extremities. […] The patient also gained weight.

A short description of data set [5]: Treatment of a Leigh Syndrome patient with SURF-1 mutations (Example 2): drug levels in plasma and CSF. Format: in vivo, human. As to conditions: Example 2 patient. The method, then: (§2) The patient's weight was approximately 10 kg. Alpha-tocotrienol quinone was administered to the patient via gastrointestinal feeding tube; the drug was mixed with sesame oil for administration. The following dosing of alpha-tocotrienol quinone was used:
Full pharmacokinetic sampling (post dose, 3 h, 6 h, 10 h, 24 h, 36 h, 48 h, and 72 h) was done after administration of the initial dose. 0.5 mL of blood were taken at each time point, for a total of four mL of blood drawn at 72 h. Bio-analysis and pharmacokinetic calculations were conducted.
The minimal effective dose of alpha-tocotrienol quinone was determined. The concentration 24 hours after dosing (C24h) was expected to be 220.5 ng/ml (0.504), while the minimal effective dose was expected to be around 150 mg. Thus, the daily dosage was escalated stepwise.
The concentration of alpha tocotrienol quinone was monitored in the patient. […] Alpha tocotrienol quinone was present at 1.3 ng/ml in CSF.

Data set [6] is described as follows: Animal study of alpha-tocotrienol quinone administration, pharmacokinetics in rats. The following applies: rat, in vivo, 10 mg/kg. On the procedure:
as §1

Data set [7] concerns patient with Leigh Syndrome. Nature of the data set: Treatment of a Leigh Syndrome patient with SURF-1 mutations (Example 2): lactate, MRI, adverse events. Format: in vivo, human. As to conditions: Example 2 patient. On the procedure:
A patient with Leigh Syndrome was treated with alpha-tocotrienol quinone. Informed consent was obtained from the child's parents in accordance with federal regulations and institutional protocol. Two mutations were identified in the SURF-1 gene of the patient.
as §2
The patient returned for a review of safety and efficacy evaluation, including CNS lactate/pyruvate ratios as determined by non-invasive means (MRI/MRS) and ECHO. The following efficacy parameters were evaluated: PK parameters; magnetic resonance spectroscopy of central nervous system; echocardiography and electrocardiogram; and plasma and urine analytes.
Lactic acid measurements were as follows:
Magnetic resonance imaging of the patient was performed to assess the effect of treatment. […] These findings are consistent with Leigh Syndrome encephalopathies.
Close monitoring of the patient during the study was performed, to detect any adverse events. In addition, the investigator had authority to stop the study if the safety of the subject was at risk.

The mark [8] stands for this setting: after treatment compared with pre-treatment MRI.

Take `CC(C)=CCC/C(C)=C/CC/C(C)=C/CCC(C)(O)CCC1=C(C)C(=O)C(C)=C(C)C1=O` (stereo not drawn) [alpha-tocotrienol quinone, Alpha-tocotrienol quinone]: the “crosses the blood-brain barrier” value in data set [1] is “crosses the blood-brain barrier”. Further, the half-maximal effective concentration (EC50) in the data set with SURF-1 fibroblasts (FIG. 1 experiment run beside Coenzyme Q10, read-out: EC50, viability of cells with a SURF-1 mutation (FIG. 1)) was 27 nM. Moreover, the EC50 in the data set on SURF-1 fibroblasts (FIG. 2 experiment run beside αTTQ-RS, read-out: EC50, viability of cells with a SURF-1 mutation (FIG. 2)) is 21 nM. Also, the bioavailability in data set [2] is about 16%. Moreover, the “dose at which safe when given acutely” value in data set [3] is reported as “up to 2000 mg/kg”. For the same molecule, the “NOAEL on mg/m2 basis” value in data set [3] (po) is reported as 3,000 mg/m2. Besides, the control of extremities result in data set [4] (after 22 days of treatment, unable to control extremities at start) is listed as “able to move their arm in the “high-five” gesture”. Also, in data set [4] (after 379 days of treatment), the motor function result is on record as “able to sit upright” and the weight gained was 15 pounds. In data set [4] (under treatment), the gastrointestinal function entry was “greatly improved” and the sleep entry was “improved”. Further, the “concentration 24 hours after dosing (C24h), expected” value in data set [5] (expectation before dose escalation) worked out at 220.5 ng/mL. For the same molecule, the concentration at 98 day of treatment in data set [5] (human, cerebrospinal fluid, other: via gastrointestinal feeding tube, 98th day of treatment, FIG. 9) is 1.3 ng/mL. The molecule also gave a bioavailability in data set [6] of about 90%. The adverse events entry in data set [7] (close monitoring during the study, FIG. 7) is listed as “No adverse events were observed”. The “plasma lactate level after treatment” value in data set [7] (3.6 mM approximately 4 months prior to treatment, normal range 1.0 to 1.4 mM) came to 1.1 mM. For the same molecule, the “CSF lactate level after treatment” value in data set [7] (46.5 mg/dL about 2 years pre-treatment) was 24.0 mg/dL. In addition, in data set [7] (setting [8]), the “MRI: T2 hyperintensities of midbrain, pons, medulla and cerebellum” value was “interval improvement”; the “MRI: amount of lesions” value is “overall decrease”. In addition, the “reduction of CSF lactate” value in data set [7] (after treatment vs about 2 years pre-treatment) was found to be 48.4%. Also, in data set [7] (after treatment vs approximately 4 months prior), the “reduction of plasma lactate” value is given as 69.4%. Also, in data set [7] (two days prior to treatment to approximately 98 days after starting), the “decrease in brain lactate” value was 20-30%.

The values are drawn from patent publication US20170246124A1, “TREATMENT OF LEIGH SYNDROME AND LEIGH-LIKE SYNDROME WITH TOCOTRIENOL QUINONES” (BioElectron Technology Corporation, priority 2009, published 2017).
